Measurements published in ChEMBL document CHEMBL1201862, “PubChem BioAssay data set” (2004).
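Protocol summary: plate cells (96-well), add compound at 5 concentrations, incubate 48 h, interpolate endpoints linearly. The concentration for 50% growth inhibition is given as GI50.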 Activity calls are given as the source filed them. Rule as the data show it: active = GI50 up to about 1.1 µM and inactive = higher.

How the values were obtained:
Assay in all cases: inhibition of tumour cell growth, NCI panel, 48 h
HL-60 = tested on: HL-60
NCI-H460 = tested on: NCI-H460
NCI-H522 = tested on: NCI-H522
SK-MEL-5 = tested on: SK-MEL-5
DMS-114 = tested on: DMS-114
HT-29 = tested on: HT-29
SN12C = tested on: SN12C
SW-620 = tested on: SW-620
HCC 2998 = tested on: HCC 2998
EKVX = tested on: EKVX
K562 = tested on: K562
NCI-H226 = tested on: NCI-H226
ACHN = tested on: ACHN
NCI-H23 = tested on: NCI-H23
LOX IMVI = tested on: LOX IMVI
NCI/ADR-RES = tested on: NCI/ADR-RES
786-0 = tested on: 786-0
DU-145 = tested on: DU-145
A498 = tested on: A498
BT-549 = tested on: BT-549

Measured: GI50

COc1ccc(C[C@H](N)C(=O)N2C[C@@H](CO)C[C@@H](n3ccc(=O)[nH]c3=O)C2)cc1
inactive: HL-60 > 100 µM | NCI-H460 > 100 µM | NCI-H522 > 100 µM | SK-MEL-5 > 100 µM | DMS-114 > 100 µM | HT-29 > 100 µM | SN12C > 100 µM | SW-620 > 100 µM | HCC 2998 > 100 µM | EKVX > 100 µM | K562 > 100 µM | NCI-H226 > 100 µM | ACHN > 100 µM | NCI-H23 > 100 µM | LOX IMVI > 100 µM

O=C1OC(c2ccccc2)=N/C1=C\c1ccc([N+](=O)[O-])cc1
inactive: HL-60 24.4 µM | NCI/ADR-RES 8.97 µM | NCI-H460 > 100 µM | 786-0 26.9 µM | NCI-H522 9.57 µM | SK-MEL-5 66.8 µM | DU-145 47.4 µM | HT-29 > 100 µM | A498 35.4 µM | BT-549 15.3 µM | SN12C > 100 µM | SW-620 > 100 µM | HCC 2998 > 100 µM | EKVX 36 µM | K562 > 100 µM | NCI-H226 3.96 µM | ACHN 14.3 µM | NCI-H23 24.5 µM | LOX IMVI 26.4 µM

CCCCCC(O)C1C(=O)OC(C)C(O)/C=C/C=C/C=C/C=C\C=C(\C)C(O)CC(O)CC(O)CC(O)CC(O)CC(O)CC1O (configuration not stated)
inactive: HL-60 > 50 µM | NCI/ADR-RES > 50 µM | NCI-H460 > 50 µM | 786-0 > 50 µM | NCI-H522 > 50 µM | SK-MEL-5 > 50 µM | DU-145 > 50 µM | HT-29 > 50 µM | A498 > 50 µM | BT-549 > 50 µM | SN12C > 50 µM | SW-620 > 50 µM | HCC 2998 > 50 µM | EKVX > 50 µM | K562 > 50 µM | NCI-H226 > 50 µM | ACHN > 50 µM | NCI-H23 > 50 µM | LOX IMVI > 50 µM

C/C=C/C(=O)Oc1cccc2cccnc12
inactive: HL-60 4.32 µM | NCI-H460 3.32 µM | 786-0 29.2 µM | NCI-H522 1.82 µM | SK-MEL-5 14.5 µM | DMS-114 4.22 µM | HT-29 19.7 µM | SN12C 5.87 µM | SW-620 5.61 µM | HCC 2998 20.6 µM | EKVX 6.85 µM | K562 6.08 µM | NCI-H226 25.1 µM | ACHN 18.2 µM | NCI-H23 4.91 µM | LOX IMVI 9.2 µM

COc1cccc(NC(=O)CC(=O)N2N=C(N(CCC#N)c3ccccc3C)CC2c2ccccc2)c1 (configuration not stated)
inactive: HL-60 > 100 µM | NCI-H460 > 100 µM | 786-0 > 100 µM | NCI-H522 > 100 µM | SK-MEL-5 > 100 µM | DMS-114 > 100 µM | HT-29 > 100 µM | SN12C > 100 µM | SW-620 > 100 µM | HCC 2998 > 100 µM | EKVX > 100 µM | K562 > 100 µM | NCI-H226 > 100 µM | ACHN > 100 µM | NCI-H23 > 100 µM

CC(=O)N(C)C=C1C(=O)N(C)C(=O)N(C)C1=O
inactive: HL-60 > 100 µM | NCI-H460 > 100 µM | 786-0 > 100 µM | SK-MEL-5 > 100 µM | DMS-114 > 100 µM | HT-29 > 100 µM | A498 > 100 µM | SN12C > 100 µM | SW-620 > 100 µM | HCC 2998 > 100 µM | EKVX > 100 µM | K562 > 100 µM | NCI-H226 > 100 µM | ACHN > 100 µM | NCI-H23 > 100 µM | LOX IMVI > 100 µM

COc1ccc2c(c1O)C(=O)C(CCC(=O)O)CC2 (configuration not stated)
inactive: HL-60 > 100 µM | NCI-H460 > 100 µM | 786-0 > 100 µM | SK-MEL-5 > 100 µM | DMS-114 > 100 µM | HT-29 > 100 µM | A498 > 100 µM | SN12C > 100 µM | SW-620 > 100 µM | HCC 2998 > 100 µM | EKVX > 100 µM | ACHN > 100 µM | NCI-H23 > 100 µM | LOX IMVI > 100 µM

C[C@]12C/C(=C/O)C(=O)C(O)=C1CC[C@@H]1C2CC[C@@]2(C)C1CC[C@@H]2O (some centres not stated)
inactive: HL-60 17.3 µM | NCI-H460 21.8 µM | 786-0 33.3 µM | NCI-H522 15.6 µM | SK-MEL-5 20.2 µM | DMS-114 18.2 µM | HT-29 25.3 µM | A498 23.6 µM | SN12C 25.9 µM | SW-620 37 µM | EKVX 26.3 µM | K562 22.3 µM | NCI-H226 19.6 µM | ACHN 27.8 µM | NCI-H23 17.4 µM | LOX IMVI 12 µM

O=C1CC2(CCC3=C(O2)c2ccccc2NC(=O)C3)C(=O)c2ccccc2N1 (configuration not stated)
inactive: HL-60 > 100 µM | NCI-H460 > 100 µM | 786-0 > 100 µM | NCI-H522 > 100 µM | SK-MEL-5 > 100 µM | DMS-114 > 100 µM | HT-29 > 100 µM | SN12C > 100 µM | SW-620 > 100 µM | EKVX > 100 µM | K562 48.1 µM | NCI-H226 > 100 µM | ACHN > 100 µM | NCI-H23 > 100 µM | LOX IMVI > 100 µM

CN1C(=O)c2ccccc2OC12C=Cc1c(ccc3ccccc13)O2 (configuration not stated)
active: NCI-H522 0.682 µM
inactive: HL-60 2.99 µM | NCI/ADR-RES 2.38 µM | NCI-H460 6.59 µM | 786-0 7.19 µM | SK-MEL-5 6.05 µM | DU-145 8 µM | HT-29 2.92 µM | A498 12.9 µM | BT-549 5.96 µM | SN12C 15.2 µM | SW-620 3.64 µM | HCC 2998 3.95 µM | EKVX 2.32 µM | K562 2.82 µM | NCI-H226 5.94 µM | ACHN 3.1 µM | NCI-H23 4.05 µM | LOX IMVI 5.93 µM

COc1ccc(OC)c(CC(C)N)c1 (configuration not stated)
inactive: NCI-H460 > 100 µM | 786-0 > 100 µM | NCI-H522 > 100 µM | SK-MEL-5 > 100 µM | DMS-114 > 100 µM | HT-29 > 100 µM | A498 > 100 µM | SN12C > 100 µM | SW-620 > 100 µM | HCC 2998 > 100 µM | EKVX > 100 µM | K562 > 100 µM | NCI-H226 > 100 µM | ACHN > 100 µM | NCI-H23 > 100 µM | LOX IMVI > 100 µM

CCCc1ccc(NCc2cc(OC)c(OC)c(OC)c2)cc1
inactive: NCI-H460 55 µM | 786-0 22.4 µM | SK-MEL-5 15.5 µM | DMS-114 15.6 µM | HT-29 23.6 µM | A498 28.3 µM | SN12C 22.3 µM | EKVX 61 µM | K562 12.1 µM | ACHN 30.6 µM | NCI-H23 22 µM | LOX IMVI 15.7 µM
